{"source": "patent US10196668B2", "about": "“Reagents and methods for screening MPS I, II, IIIA, IIIB, IVA, VI, and VII” (University of Washington through its Center for …, priority 2013, dated 2019)", "key": {"[1]": {"molecular_target": "T1, alpha-L-iduronidase (MPS-I enzyme) (Homo sapiens, UniProt P35475)", "T1 construct": "from tissue; host or cells: dried blood spot (3 mm punch)", "T1 sequence (P35475 28-653)": "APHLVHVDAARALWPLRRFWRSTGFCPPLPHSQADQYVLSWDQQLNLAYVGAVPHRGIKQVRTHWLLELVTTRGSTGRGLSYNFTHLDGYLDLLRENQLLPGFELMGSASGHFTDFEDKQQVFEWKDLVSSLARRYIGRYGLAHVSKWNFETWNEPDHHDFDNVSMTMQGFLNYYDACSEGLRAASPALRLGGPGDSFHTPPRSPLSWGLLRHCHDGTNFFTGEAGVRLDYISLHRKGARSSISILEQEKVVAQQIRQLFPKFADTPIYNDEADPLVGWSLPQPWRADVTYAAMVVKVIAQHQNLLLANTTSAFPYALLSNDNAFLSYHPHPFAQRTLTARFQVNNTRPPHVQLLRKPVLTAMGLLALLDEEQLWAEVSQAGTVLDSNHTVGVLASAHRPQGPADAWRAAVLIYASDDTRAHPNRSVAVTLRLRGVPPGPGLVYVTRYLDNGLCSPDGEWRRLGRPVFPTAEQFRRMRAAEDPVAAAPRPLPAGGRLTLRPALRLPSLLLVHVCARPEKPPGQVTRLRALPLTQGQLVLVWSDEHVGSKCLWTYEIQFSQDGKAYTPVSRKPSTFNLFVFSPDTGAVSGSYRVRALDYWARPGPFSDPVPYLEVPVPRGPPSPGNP", "assay": "MPS-I enzyme assay with dried blood spot punch, LC/MSMS", "assay_type": "biochemical", "procedure": "The original and alternative MPS-I substrates were compared in side-by-side enzyme assays as follows: 0.5 mM substrate, 3.5 uM internal standard in 30 uL of buffer (100 mM ammonium formate, pH 4.0). A 3 mm punch of a dried blood spot was added, and the mixtures were incubated with shaking for 16 hours at 37 deg C. The reactions were quenched by addition 120 uL of acetonitrile. The wells were centrifuged, and 120 uL of supernatant was transferred to a new well. The sample was diluted by addition of 120 uL of water, and 10 uL was injected onto the LC/MSMS system. The LC and MS/MS conditions are as published (Spacil, Z., Tatipaka, H., Barcenas, M., Scott, C. R., Turecek, F., Gelb, M. H. (2012) “High-Throughput Assay of 9 Lysosomal Enzymes for Newborn Screening.” Clinical Chemistry., 59 (3), […]). A blank assay is also carried out in which a blood-free 3 mm punch of filter paper is substituted for the dried blood spot. The blank is incubated and processed as above."}, "[2]": {"test_system": "N-acetylgalactosamine-6-sulfatase (GALNS)", "assay": "GALNS (MPS-IVA) assay with beta-NGA and Z-PUG-NAc, UHPLC-MS/MS", "assay_type": "biochemical, human", "procedure": "(§1) Experiment 1. A 3 mm punch of a dried blood spot from a random newborn is incubated with 0.03 mL of assay cocktail consisting of 1 mM GALNS substrate in 50 mM ammonium formate pH 4.0 containing 7.5 mM barium acetate, 5.0 mM cerium acetate, 1 mM Z-PUG-NAc, and 0.01 mg of bacterial beta-N-acetylgalactosaminidase. The mixture also contains 0.005 mM internal standard. After 16 hrs at 37° C. with shaking, the mixture is quenched with 0.12 mL of acetonitrile and the sample plate is centrifuged to pellet the precipitate. Supernatant (0.12 mL) is transferred to a new plate, and 0.12 mL of water is added. The plate is placed on the autosampler of the UHPLC-MS/MS instrument (Waters Xevo TQ MS/MS with a Waters Acquity UHPLC system). A portion of the sample (0.01 mL) is injected, and the GALNS product (substrate minus sulfate), the internal standard, and the aglycones derived from the GALNS product and internal standard are quantified by multiple reaction monitoring (MS/MS). Note the internal standard added, like the GALNS product, is converted to its aglycone by the addition of bacterial beta-N-acetylgalactosaminidase.\n(§2) Experiment 2. Experiment 2 is the same as Experiment 1 but uses a punch of filter paper (no blood). Most of the internal standard is converted to the aglycone showing that the added beta-NGA is working. The amount of aglycone is only 42,000, about 10-fold lower than that seen in the presence of blood. […] Furthermore when a dried blood spot from a confirmed Morquio A patient is used, the amount of aglycone is similar to that seen in the absence of blood (45,000) showing that the assay is working to detect only the GALNS present in blood from a non-affected individual.\n(§3) Experiment 3. […] As expected, most of the internal standard is not converted to its aglycone, because is no beta-NAG and any hexosaminidase A coming from the blood is blocked by Z-PUG-NAc. The amount of GALNS product is 121,000 and the amount of aglycone is 42,900.\n(§4) Experiment 4. Experiment 4 is the same as Experiment 3, but without blood. […] Thus, most of the 121,000 product counts in Experiment 3 is due to GALNS. The product counts in Experiment 3 cannot be due to hexosaminidase A, because only beta-NGA generates the aglycone. The amount of aglycone in Experiments 3 and 4 are similar, and this represents aglycone present in the GALNS substrate as a contaminant.\n(§5) Experiment 5. […] Most of the internal standard is converted to its aglycone as expected because beta-NGA is present. The signal for aglycone is 1,350,000, much larger than in Experiment 1.\n(§6) Experiment 6. Experiment 6 contains blood but no beta-NGA and no Z-PUG-NAc. The amount of GALNS product is 110,000 instead of 25,100 as in Experiment 5, which is due to the action of GALNS on the GALNS substrate. Because beta-NGA is absent, only a small amount of GALNS product is converted to aglycone, but the amount of aglycone remains high at 1,110,000. This is because of the action of hexosaminidase A in the blood on GALNS substrate in the absence of Z-PUG-NAc.\n(§7) Experiments 7 and 8. Experiments 7 and 8 are with filter paper (no blood). […] As expected, most of the internal standard is converted to aglycone in Experiment 7, but not in Experiment 8. […] These can be removed by a further round of purification of GALNS substrate."}, "[3]": {"molecular_target": "T2, N-acetylgalactosamine-6-sulfatase (GALNS) (Homo sapiens, UniProt P34059)", "T2 construct": "Representative assays use dried blood spots on newborn screening cards as a source of GALNS; from tissue; host or cells: dried blood spot from a random newborn (3 mm punch)", "T2 sequence (P34059 27-522)": "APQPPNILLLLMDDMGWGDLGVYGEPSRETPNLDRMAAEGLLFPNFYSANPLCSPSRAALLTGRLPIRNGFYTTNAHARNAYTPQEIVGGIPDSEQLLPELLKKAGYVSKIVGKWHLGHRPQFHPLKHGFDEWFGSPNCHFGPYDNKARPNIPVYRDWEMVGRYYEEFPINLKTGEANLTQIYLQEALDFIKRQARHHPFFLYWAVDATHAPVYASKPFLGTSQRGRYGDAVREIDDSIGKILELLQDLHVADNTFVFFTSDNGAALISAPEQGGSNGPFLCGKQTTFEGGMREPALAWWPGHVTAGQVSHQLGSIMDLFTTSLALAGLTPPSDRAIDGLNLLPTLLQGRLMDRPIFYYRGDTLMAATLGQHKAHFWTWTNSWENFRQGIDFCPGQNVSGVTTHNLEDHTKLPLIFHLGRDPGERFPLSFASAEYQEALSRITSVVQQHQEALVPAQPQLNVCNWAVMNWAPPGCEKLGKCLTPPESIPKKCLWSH", "assay": "GALNS (MPS-IVA) assay with beta-NGA and Z-PUG-NAc, UHPLC-MS/MS", "assay_type": "biochemical", "procedure": "as §1, §2, §3, §4, §5, §6, §7"}, "[4]": {"details": "Expt. 1: 3 mm dried blood spot punch, 1 mM Z-PUG-NAc, 0.01 mg beta-NGA"}, "[5]": {"details": "Expt. 2: 3 mm filter paper punch (no blood), 1 mM Z-PUG-NAc, 0.01 mg of bacterial enzyme"}, "[6]": {"details": "Expt. 3: 3 mm dried blood spot punch, 1 mM Z-PUG-NAc, no beta-NGA"}, "[7]": {"details": "Expt. 4: 3 mm filter paper punch (no blood), 1 mM Z-PUG-NAc, no beta-NGA"}, "[8]": {"details": "Expt. 5: 3 mm dried blood spot punch, 0.01 mg beta-NGA, no Z-PUG-NAc"}, "[9]": {"details": "Expt. 6: 3 mm dried blood spot punch, Nothing added (no beta-NGA, no Z-PUG-NAc)"}, "[10]": {"details": "Expt. 7: 3 mm filter paper punch (no blood), 0.01 mg beta-NGA, no Z-PUG-NAc"}, "[11]": {"details": "Expt. 8: 3 mm filter paper punch (no blood), Nothing added"}}, "note": "Structures can show the parent of a compound that is named as a salt."}
{"smiles": "CC(=O)N(CCCCCCNC(=O)c1ccccc1)CCC(=O)Nc1ccc(OC2OC(C(=O)O)C(O)C(O)C2O)cc1", "note": "(centres unmarked) [Alternative MPS-I]", "values": [{"measurement": "Enzymatic Activity", "setting": "[1]; 0.5 mM substrate, 3 mm dried blood spot punch, pH 4.0, 16 hours at 37 deg C", "value": 2.5, "unit": "umole/hr/L blood"}, {"measurement": "blood-no blood assay ratio", "setting": "[1]; activity with dried blood spot punch to that with blood-free punch", "value": 34}]}
{"smiles": "[2H]c1c([2H])c([2H])c(C(=O)NCCCCCN(CCC(=O)Nc2ccc(OC3OC(CO)C(O)C(O)C3NC(C)=O)cc2)C(=O)CCCC)c([2H])c1[2H]", "note": "(centres unmarked) [GALNS internal standard]", "values": [{"measurement": "GALNS internal standard peak area", "setting": "[2]; [4]", "value": 278}, {"measurement": "internal standard aglycone peak area", "setting": "[2]; [4]", "value": "54,400"}, {"measurement": "GALNS internal standard peak area", "setting": "[2]; [5]", "value": "3,290"}, {"measurement": "internal standard aglycone peak area", "setting": "[2]; [5]", "value": "15,900"}, {"measurement": "GALNS internal standard peak area", "setting": "[2]; [6]", "value": "23,500"}, {"measurement": "internal standard aglycone peak area", "setting": "[2]; [6]", "value": 940}, {"measurement": "GALNS internal standard peak area", "setting": "[2]; [7]", "value": "14,700"}, {"measurement": "internal standard aglycone peak area", "setting": "[2]; [7]", "value": 412}, {"measurement": "GALNS internal standard peak area", "setting": "[2]; [8]", "value": 852}, {"measurement": "internal standard aglycone peak area", "setting": "[2]; [8]", "value": "49,200"}, {"measurement": "GALNS internal standard peak area", "setting": "[2]; [9]", "value": "17,900"}, {"measurement": "internal standard aglycone peak area", "setting": "[2]; [9]", "value": "17,100"}, {"measurement": "GALNS internal standard peak area", "setting": "[2]; [10]", "value": "1,920"}, {"measurement": "internal standard aglycone peak area", "setting": "[2]; [10]", "value": "22,200"}, {"measurement": "GALNS internal standard peak area", "setting": "[2]; [11]", "value": "12,100"}, {"measurement": "internal standard aglycone peak area", "setting": "[2]; [11]", "value": 648}]}
{"smiles": "CCCCC(=O)N(CCCCCNC(=O)c1ccccc1)CCC(=O)Nc1ccc(OC2OC(COS(=O)(=O)O)C(O)C(O)C2NC(C)=O)cc1", "note": "[GALNS substrate, Sodium ((2R,3R,4R,5R,6S)-5-acetamido-6(4(3(N (5-benzamidopentyl)-pentanamido)propanamido)phenoxy)-3,4-dihydroxytetrahydro-2H-pyran-2-yl)methyl sulfate]", "values": [{"measurement": "GALNS product (substrate without sulfate) peak area", "setting": "[3]; [4]", "value": "46,100"}, {"measurement": "aglycone peak area (product without sugar)", "setting": "[3]; [4]", "value": "411,000"}, {"measurement": "GALNS product (substrate without sulfate) peak area", "setting": "[3]; [6]", "value": "121,000"}, {"measurement": "GALNS product (substrate without sulfate) peak area", "setting": "[3]; [8]", "value": "25,100"}, {"measurement": "GALNS product (substrate without sulfate) peak area", "setting": "[3]; [9]", "value": "110,000"}, {"measurement": "GALNS product (substrate without sulfate) peak area", "setting": "[2]; [5]", "value": 422}, {"measurement": "aglycone peak area (product without sugar)", "setting": "[2]; [5]", "value": "42,000"}, {"measurement": "aglycone peak area (product without sugar)", "setting": "[2]; [6]", "value": "42,900"}, {"measurement": "GALNS product (substrate without sulfate) peak area", "setting": "[2]; [7]", "value": 753}, {"measurement": "aglycone peak area (product without sugar)", "setting": "[2]; [7]", "value": "22,700"}, {"measurement": "aglycone peak area (product without sugar)", "setting": "[2]; [8]", "value": "1,350,000"}, {"measurement": "aglycone peak area (product without sugar)", "setting": "[2]; [9]", "value": "1,110,000"}, {"measurement": "GALNS product (substrate without sulfate) peak area", "setting": "[2]; [10]", "value": 253}, {"measurement": "aglycone peak area (product without sugar)", "setting": "[2]; [10]", "value": "19,800"}, {"measurement": "GALNS product (substrate without sulfate) peak area", "setting": "[2]; [11]", "value": 820}, {"measurement": "aglycone peak area (product without sugar)", "setting": "[2]; [11]", "value": "14,500"}, {"measurement": "amount of aglycone (peak area)", "setting": "[2]; dried blood spot from a confirmed Morquio A patient, 1 mM Z-PUG-NAc, 0.01 mg beta-NGA", "value": "45,000"}]}
